Source: patent publication US6514993B1, “Serotonin 5-HT1A and dopamin D2 receptor ligands” (H. Lundbeck A/S, priority 1994, dated 2003)
Counter-ions that a name gives are not always drawn.

Assays:
5-HT1A receptors [1] = target: T1, 5-HT1A receptors (Rattus norvegicus, UniProt P19327); set-up: antagonist effects of a test compound on 5-HT1A receptors in vivo; from tissue; host or cells: whole animal (rat), in vivo behavioural test; conditions: partial 5-HT1A agonists; cited from earlier work
T1 sequence (P19327 1-422): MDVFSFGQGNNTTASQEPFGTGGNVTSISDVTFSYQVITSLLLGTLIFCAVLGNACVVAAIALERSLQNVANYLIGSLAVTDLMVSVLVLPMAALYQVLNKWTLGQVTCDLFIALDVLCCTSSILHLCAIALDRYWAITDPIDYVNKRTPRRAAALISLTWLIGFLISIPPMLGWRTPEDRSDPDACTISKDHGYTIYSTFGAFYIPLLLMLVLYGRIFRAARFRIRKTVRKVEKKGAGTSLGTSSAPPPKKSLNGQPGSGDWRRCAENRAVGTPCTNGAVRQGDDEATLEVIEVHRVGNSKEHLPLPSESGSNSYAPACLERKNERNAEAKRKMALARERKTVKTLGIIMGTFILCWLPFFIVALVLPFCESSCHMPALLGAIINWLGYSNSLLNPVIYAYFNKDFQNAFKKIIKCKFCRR

5-HT1A receptors [2] = target: T1, 5-HT1A receptors; test: Inhibition of 3H-8-OH-DPAT binding to serotonin 5-HT1A receptors in rat brain in vitro; set-up: 5-HT1A receptors in membranes from rat brain minus cerebellum; from tissue; host or cells: rat brain minus cerebellum (membranes); conditions: 3H-8-OH-DPAT 1 nM, membranes from rat brain minus cerebellum
Description: Inhibition of ^3H8-OH-DPAT Binding to Serotonin 5-HT1A Receptors in Rat Brain in vitro
By this method the inhibition by drugs of the binding of the 5-HT1A agonist 3H-8-OH-DPAT (1 nM) to 5-HT1A receptors in membranes from rat brain minus cerebellum is determined in vitro. Accordingly, this is a test for affinity for the 5-HT1A receptor. The test was performed as described by Hyttel et al., Drug Dev. Res. 1988, 15, 389-404.

Cataleptogenic effect = test: Cataleptogenic effect; set-up: species or system rats; conditions: rat, in vivo; 1-6 h, sc; read-out: Catalepsy ED50
Excerpt: Evaluation of cataleptogenic effects of the compounds of the invention was made according to the method of Sanchez, C. et al.; Drug Dev. Res. 1991, 22, 239-250.

dopamine D2 receptors = dopamine D2 receptors (Rattus norvegicus, UniProt P61169); test: Inhibition of 3H-spiroperidol binding to dopamine D2 receptors in rat brain in vitro; conditions: 3H-spiroperidol 0.5 nM, membranes from rat corpus striatum; read-out: 3H Spiroperidole (D2) binding IC50
Sequence of dopamine D2 receptors (P61169 1-415 isoform P61169-2): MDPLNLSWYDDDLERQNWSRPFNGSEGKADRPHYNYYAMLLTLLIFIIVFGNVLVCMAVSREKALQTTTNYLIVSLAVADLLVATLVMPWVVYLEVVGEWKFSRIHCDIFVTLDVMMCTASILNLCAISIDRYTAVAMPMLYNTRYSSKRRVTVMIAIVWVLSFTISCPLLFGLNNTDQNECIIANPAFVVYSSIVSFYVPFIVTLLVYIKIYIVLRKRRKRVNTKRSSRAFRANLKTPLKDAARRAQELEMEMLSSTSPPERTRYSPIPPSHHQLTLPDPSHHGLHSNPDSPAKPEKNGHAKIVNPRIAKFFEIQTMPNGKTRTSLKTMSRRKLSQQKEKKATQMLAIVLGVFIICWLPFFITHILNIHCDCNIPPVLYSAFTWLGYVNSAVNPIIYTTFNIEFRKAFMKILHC
Description: Inhibition of 3H-spiroperidol Binding to Dopamine D2 Receptors in Rat Brain in vitro
By this method the inhibition by drugs of the binding of the D2 antagonist ^3H-spiroperidol (0.5 nM) to D2 receptors in membranes from rat corpus striatum is determined in vitro. Accordingly, this is a test for affinity for the dopamine D2 receptor.

| Structure (SMILES) | Inhibition of 5-MeO-DMT-induced 5-HT syndrome (general statement) (5-HT1A receptors [1]) | IC50 (5-HT1A receptors [2]) | melting point | ED50 (Cataleptogenic effect) | IC50 (dopamine D2 receptors) |
| --- | --- | --- | --- | --- | --- |
| O=C1CC2(CCCC2)CC(=O)N1CCCCN1CCN(c2ncccn2)CC1 [buspirone, 8-[4-[4-(2-pyrimidyl)-1-piperazinyl]butyl]-8-azaspiro[4,5]decane-7,9-dione] | inhibit the characteristic 5-HT syndrome produced by 5-MeO DMT | – | – | – | – |
| CC(C)Oc1ccccc1C1CCN(CCCCN2CCN(C(C)C)C2=O)CC1.O=C(O)C(=O)O [Compound 6d, 3-(2-Propyl)-1-[4-[4-[2-(2-propyloxy)phenyl]-1-piperidinyl]-1-butyl]-2-imidazolidinone, oxalate] | – | 5 nM | 82 to 84 °C | > 41 µmol/kg | 7.7 nM |
| CC(C)Oc1ccccc1N1CCN(CCCCN2CCN(C3CCCCC3)C2=O)CC1.O=C(O)C(=O)O [Compound 4a, 3-Cyclohexyl-1-[4-[4-[2-(2-propyloxy)phenyl]-1-piperazinyl]butan-1-yl]-2-imidazolidinone, Oxalate] | – | 1.8 nM | – | > 38 µmol/kg | 6.4 nM |
| CC(C)Oc1ccccc1C1=CCN(CCCCn2ccn(C34CC5CC(CC(C5)C3)C4)c2=O)CC1.O=C(O)C(=O)O | – | – | 104 to 109 °C | – | – |
| CC(C)Oc1ccccc1C1CCN(CCCN2CCN(C3CCCCC3)C2=O)CC1.O=C(O)C(=O)O [Compound 6c, 3-Cyclohexyl-1-[3-[4-[2-(2-propyloxy)phenyl]-1-piperidinyl]-1-propyl]-2-imidazolidinone, oxalate] | – | 35 nM | 136 to 139 °C | – | 110 nM |
| CC(C)Oc1ccccc1C1CCN(CCCCCCN2CCN(C3CCCCC3)C2=O)CC1.O=C(O)C(=O)O [Compound 6e, 3-Cyclohexyl-1-[6-[4-[2-(2-propyloxy)phenyl]-1-piperidinyl]-1-hexyl]-2-imidazolidinone, oxalate] | – | 20 nM | 77 to 79 °C | > 33 µmol/kg | 16 nM |
| CC(C)(C)COc1ccccc1C1CCN(CCCCN2CCN(C3CCCCC3)C2=O)CC1.O=C(O)C(=O)O | – | – | 162 to 168 °C | – | – |
| O=C(CCCN1CCC(O)(c2ccc(Cl)cc2)CC1)c1ccc(F)cc1 [haloperidol, reference compound] | – | – | – | 0.36 µmol/kg | – |
| O=C(O)C(=O)O.O=C1N(CCCCN2CCC(c3ccccc3OCC3CC3)CC2)CCN1C1CCCCC1 [Compound 6f, 3-Cyclohexyl-1-[4-[4-[2-(cyclopropylmethoxy)phenyl]-1-piperidinyl]butan-1-yl]-2-imidazolidinone, oxalate] | – | 26 nM | 186 to 193 °C | – | 37 nM |
| O=C1N(CCCCN2CCC(c3ccccc3OS(=O)(=O)C(F)(F)F)CC2)CCN1c1ccc(F)cc1 [Compound 7a, 3-(4-Fluorophenyl)-1-[4-[4-[2-(2-trifluoromethylsulfonyloxy)phenyl]-1-piperidinyl]butan-1-yl]-2-imidazolidinone] | – | 37 nM | – | – | 41 nM |
| CC(C)Oc1ccccc1C1=CCN(CCCCN2CCN(C3CCCCC3)C2=O)CC1.O=C(O)C(=O)O [Compound 9a, 3-Cyclohexyl-1-[4-[4-[2-(2-propyloxy)phenyl]-1,2,3,6-tetrahydropyridin-1-yl]butan-1-yl]-2-imidazolidinone Oxalate] | – | 9 nM | – | > 38 µmol/kg | 8.7 nM |
| CC(C)Oc1ccccc1C1=CCN(CCCCN2CCN(c3ccc(F)cc3)C2=O)CC1.O=C(O)C(=O)O [Compound 9b, 3-(4-Fluorophenyl)-1-[4-[4-[2-(2-propyloxy)phenyl]-1,2,3,6-tetrahydropyridin-1-yl]butan-1-yl]-2-imidazolidinone oxalate] | – | 2.8 nM | 150 to 152 °C | > 37 µmol/kg | 11 nM |
| CC(C)Oc1ccccc1C1=CCN(CCCCn2ccn(C3CCCCC3)c2=O)CC1 [Compound 9d, 3-Cyclohexyl-1-[4-[4-[2-(2-propyloxy)phenyl]-1,2,3,6-tetrahydropyridin-1-yl]butan-1-yl]-2,3-dihydroimidazol-2-one] | – | 26 nM | – | – | 27 nM |
| O=C1N(CCCCN2CCN(c3ccccc3OS(=O)(=O)C(F)(F)F)CC2)CCN1C1CCCCC1 (as salt: hydrochloride) [Compound 7b, 3-Cyclohexyl-1-[4-[4-[2-(2-trifluoromethylsulfonyloxy)phenyl]-1-piperazinyl]butan-1-yl]-2-imidazolidinone, hydrochloride] | – | – | 153 to 154 °C | – | – |
| CC(C)Oc1ccccc1N1CCN(CCCCN2CCN(c3ccc(F)cc3)C2=O)CC1 [Compound 4b, 3-(4-Fluorophenyl)-1-[4-[4-[2-(2-propyloxy)phenyl]-1-piperazinyl]butan-1-yl]-2-imidazolidinone] | – | 2.2 nM | 135 to 137 °C | > 44 µmol/kg | 3.9 nM |
| CC(C)Oc1ccccc1C1CCN(CCCCn2ccn(C34CC5CC(CC(C5)C3)C4)c2=O)CC1.O=C(O)C(=O)O | – | – | 116 to 122 °C | – | – |
| CC(C)Oc1ccccc1C1CCN(CCCCN2CCN(C3CCCCC3)C2=O)CC1.O=C(O)C(=O)O [Compound 6b, 3-Cyclohexyl-1-[4-[4-[2-(2-propyloxy)phenyl]-1-piperidinyl]butan-1-yl]-2-imidazolidinone, oxalate] | – | 5.4 nM | 138 to 141 °C | > 38 µmol/kg | 8.7 nM |
| O=C1N(CCCCN2CCN(c3ccccc3OS(=O)(=O)C(F)(F)F)CC2)CCN1C1CCCCC1 [Compound 7b, 3-Cyclohexyl-1-[4-[4-[2-(2-trifluoromethylsulfonyloxy)phenyl]-1-piperazinyl]butan-1-yl]-2-imidazolidinone, hydrochloride] | – | 42 nM | – | > 35 µmol/kg | 49 nM |
| CC(C)Oc1ccccc1C1CCN(CCCCN2CCN(c3ccc(F)cc3)C2=O)CC1.O=C(O)C(=O)O [Compound 6a, 3-(4-Fluorophenyl)-1-[4-[4-[2-(2-propyloxy)phenyl]-1-piperidinyl]butan-1-yl]-2-imidazolidinone, Oxalate] | – | 4.8 nM | – | > 44 µmol/kg | 7.9 nM |
| Cl.Cl.O=C1N(CCCCN2CCN(c3ccccc3OC3CCCC3)CC2)CCN1C1CCCCC1 [Compound 4c, 3-Cyclohexyl-1-[4-[4-(2-cyclopentyloxyphenyl)-1-piperazinyl]butan-1-yl]-2-imidazolidinone, dihydrochloride] | – | 5.4 nM | 182 to 193 °C | > 37 µmol/kg | 13 nM |
| CC(C)Oc1ccccc1N1CCN(CCCN2CCN(c3ccccc3)C2=O)CC1 [Compound 4e, 1-[3-[4-(2-(2-propyloxy)phenyl)-1-piperazinyl]-1-propyl]-3-phenyl-2-imidazolidinone] | – | 40 nM | 167 to 168 °C | > 34 µmol/kg | 24 nM |
| O=C1N(CCCCN2CCN(c3ccccc3OS(=O)(=O)C(F)(F)F)CC2)CCN1c1ccc(F)cc1 [Compound 7c, 3-(4-Fluorophenyl)-1-[4-[4-[2-(2-trifluoromethylsulfonyloxy)phenyl]-1-piperazinyl]butan-1-yl]-2-imidazolidinone] | – | 15 nM | 68 to 70 °C | > 37 µmol/kg | 57 nM |
| CC(C)Oc1ccccc1C1CCN(CCCCn2ccn(C3CCCCC3)c2=O)CC1.O=C(O)C(=O)O [Compound 6h, 3-Cyclohexyl-1-[4-[4-[2-(2-propyloxy)phenyl]-1-piperidinyl]butan-1-yl]-1,3-dihydroimidazol-2-one, oxalate] | – | 4.1 nM | 68 to 71 °C | > 38 µmol/kg | 10 nM |
| O=C1N(CCCCN2CCN(c3ccccc3OC3CCCC3)CC2)CCN1c1ccc(F)cc1 [Compound 4d, 1-[4-[4-(2-Cyclopentyloxyphenyl)-1-piperazinyl]butan-1-yl]-3-(4-fluorophenyl)-2-imidazolidinone] | – | 4 nM | 111 to 116 °C | > 42 µmol/kg | 15 nM |
